Experimental data reported in ChEMBL document CHEMBL1141163, “QSAR studies of copper azamacrocycles and thiosemicarbazones: MM3 parameter development and prediction of biological properties” (J Med Chem, 2005).

Assay: Partition coefficient (logP)
Assay type: physicochemical
Settings: octanol/water

logP: -2.29
Substance: Copper(II) Complex
